Measurements as given in paper PMC11361584 (PLOS ONE, 2024).
Where two headings read alike, the source gives them in different places. One block for each compound: values may come before it.

How the values were obtained:
[1] = parameters: method as in PMID 12236477; conditions: metabolites of omeprazole; cited from earlier work
[2] = Pharmacokinetics of levosulpiride 50 mg alone and co-administered with omeprazole 40 mg in healthy human volunteers (Phase-1); format: in vivo; conditions: for AUC(0-inf) / AUC(0-t) / Cmax / Tmax / half-life: human, plasma, oral; for CL/F: healthy human volunteers (n = 20), mean ± SD
Method: (§1) The developed method was applied for evaluation of pharmacokinetics drug-drug interaction between LSP and OMP in healthy human volunteers (n = 20). Both the drugs were administered to the healthy volunteers, their blood samples were collected at specified time points and analyzed for the drug content, using the developed method. Written consent form was signed by all the volunteers and purpose of the study was explained to them. They were physically examined and medical history was recorded. Age of the volunteers was 20–28 years, with mean body mass index (BMI) of […]. Complete blood count, creatinine clearance, and liver function tests of all the healthy human volunteers were performed. All the volunteers were non-smokers and had no history of addiction. They were instructed not to take any medicines for two weeks before the study.
(§2) The study was conducted according to the “World Medical Association Declaration of Helsinki-Ethical principles of medical research involving human subjects” and its amendments. This study was approved by the ethical committee, Department of Pharmacy, University of Swabi, KP, Pakistan (Application number F.NO.UOS/2022/Pharm.02). It was an open-label, randomized, crossover, pharmacokinetic interaction study. The volunteers were divided into two groups of same size (n = 10) and the trial was conducted in two phases and two sequences, as follows;
Phase-1: First phase of the study consisted of two cycles with a wash out period of 14 days. During first phase of the study;
• Group-I: OMP 40 mg was administered twice a day for 6 days, and on the 7th day a single dose of LSP 50 mg was administered • Group-II: LSP 50 mg was administered alone as a single dose
Blood samples (3 mL) were collected at 0, 0.25, 0.5, 1, 2, 3, 4, 6, 8, 12, 24 and 36 hours. After 14 days washout period;
• Group-I: LSP 50 mg was administered alone • Group-II: OMP 40 mg, was administered twice a day for 6 days, on the 7th day LSP 50 mg was administered
(§3) The pharmacokinetic parameters were determined using non-compartmental analysis using PK-Summit (version 2.0.2). The plasma concentration of the drug (ng/mL) versus time (hour) profile was constructed for both drugs when administered alone and in combination with each another. The pharmacokinetic parameters like peak plasma concentration (Cmax), time to reach peak plasma concentration (Tmax), area under the concentration-time curve from zero time to time-t (AUC0-t) i.e. AUC0-36 for LSP and AUC0-12 for OMP, area under the concentration-time curve from zero time to infinity (AUC0-∞), elimination half-life (t1/2) and clearance (CL) were determined.
(§4) All the analysis was performed as per ICH guidelines using mean, standard deviation, and relative standard deviation. In the pharmacokinetic studies, the parameter values were compared using a t-test. The P-value (t-test) was calculated using the IBM SPPS statistics version 20. A p < 0.05 (95% confidence interval) was considered to be significant.

[3] = Stability of spiked human plasma samples at LQC and HQC at different temperatures; format: in vitro ADME; conditions: plasma sample
Method: For preparation of plasma samples, blood was collected from human volunteer and centrifuged to separate the cellular components. Plasma was de-proteinated with acetonitrile (two times volume of plasma) and was used for spiking the analytes. A liquid-liquid extraction method, reported by Jin et al., [18], with slight modification was used for extraction of LSP and OMP. Known amount of LSP, OMP and IS were added to plasma (1 mL), and vortexed for 30 sec. 4 ml of extraction solvent (mixture of ethyl acetate and dichloromethane in 4:1 by volume) was added, vortexed for 2 min and centrifuged at 3000 × g for 10 min. The supernatant (organic) layer was separated and dried under a gentle stream of nitrogen gas. The dried residue was reconstituted with 0.2 mL of mobile phase and an aliquot (20 μL) was injected into the HPLC system. Blank and zero samples were also treated in the same manner.
The stability of the samples was also evaluated at the level of LQC and HQC of both the analytes. The LQC were 10 and 30 ng/mL while the HQC were 120 and 1200 ng/mL for LSP and OMP, respectively. […] The sample stored at –20 °C involved freeze-thawed cycles at a gap of 12 hours between the two-consecutive freeze-thawed cycles.
The stability of the samples was evaluated for short term and relatively long term (one month). […] The % recovery was calculated by comparing the % recovery (concentration recovered) with freshly prepared spiked samples.

[4] = cited from earlier work
[5] = Pharmacokinetics of omeprazole 40 mg alone and co-administered with levosulpiride 50 mg in healthy human volunteers (Phase-2); format: in vivo
Method: as §1, §2
Phase-2 of the study was started after one month of the completion of Phase-1, as follows;
• Group-I: LSP 50 mg was given for 6 days twice a day and on the 7th day single dose of OMP 40 mg was administered • Group-II: OMP 40 mg was administered alone.
The blood was sampled at 0, 0.25, 0.5, 1, 2, 3, 4, 6, 8, and 12 hours.
After 14 days washout period, the pattern of drug administration was reversed as follows;
• Group-I: OMP 40 mg was administered alone. • Group-II: LSP 50 mg was given for 6 days twice a day and on the 7th day single dose of OMP 40 mg was administered
as §3, §4

[6] = levosulpiride with omeprazole versus alone, not significant
[7] = plasma, oral, omeprazole 40 mg alone, healthy human volunteers (n = 20), mean ± SD

SMILES: COc1ccc2nc([S+]([O-])Cc3ncc(CO)c(OC)c3C)[nH]c2c1 (stereo not shown) [5-hydroxy omeprazole]
pharmacological activity [1]: pharmacologically inactive

AUC(0-inf) [2]: 2210 ± 577 ng·h/mL
AUC(0-t) [2]: 1770 ± 482 ng·h/mL
Cmax [2]: 118 ± 26.3 ng/mL
Tmax [2]: 3.71 ± 0.75 h
half-life [2]: 12.7 ± 4.76 h
AUC(0-inf) ([2]; 50 mg): 1870 ± 627 ng·h/mL
AUC(0-t) ([2]; 50 mg): 1540 ± 473 ng·h/mL
Cmax ([2]; 50 mg): 109 ± 24.9 ng/mL
Tmax ([2]; 50 mg): 3.8 ± 1.05 h
half-life ([2]; 50 mg): 13.3 ± 2.64 h
CL/F ([2]; levosulpiride 50 mg alone): 35832 ± 8402 mL/h
CL/F ([2]; levosulpiride 50 mg with omeprazole 40 mg): 30333 ± 6326 mL/h
increase of AUC0-t [2, 6]: 14.52%
increase of AUC0-∞ [2, 6]: 18.36%
increase of Cmax [2, 6]: 8.79%
reduction of CL [2, 6]: 15.34%
% recovery (mean) ([3]; High QC (120 ng/ml), 15 °C for 12 hours (autosampler temperature)): 99.67%
% recovery (mean) ([3]; High QC (120 ng/ml), -20 °C for 24 hours): 99.17%
% recovery (mean) ([3]; High QC (120 ng/ml), -20°C for one month, three freezed cycles): 98.33%
% recovery (mean) ([3]; High QC (120 ng/ml), RT for 24 hours): 98.00%
% recovery (mean) ([3]; Low QC (10ng/ml), 15 °C for 12 hours (autosampler temperature)): 98.36%
% recovery (mean) ([3]; Low QC (10ng/ml), -20 °C for 24 hours): 98.75%
% recovery (mean) ([3]; Low QC (10ng/ml), -20°C for one month, three freezed cycles): 96.90%
% recovery (mean) ([3]; Low QC (10ng/ml), RT for 24 hours): 96.80%
SMILES: CCN1CCC[C@H]1CNC(=O)c1cc(S(N)(=O)=O)ccc1OC [Levosulpiride]
elimination half-life ([4]; depending upon route of administration, dosage form and dose): 6 to 19 h
elimination half-life ([4]; orally administered LSP 25 mg): 12.0 h
elimination half-life ([4]; orally administered LSP 50 mg): 12.6 h
elimination half-life ([4]; orally administered LSP 100 mg): 14.3 h

AUC(0-inf) ([5]; human, plasma, oral): 6490 ± 1610 ng·h/mL
AUC(0-t) ([5]; human, plasma, oral): 5950 ± 1430 ng·h/mL
Tmax ([5]; human, plasma, oral): 1.85 ± 0.83 h
half-life ([5]; human, plasma, oral): 2.23 ± 1.03 h
CL/F ([5]; omeprazole 40 mg alone, healthy human volunteers (n = 20), mean ± SD): 7118.71 ± 2407.41 mL/h
CL/F ([5]; omeprazole 40 mg with levosulpiride 50 mg, healthy human volunteers (n = 20), mean ± SD): 7100.69 ± 2001.55 mL/h
AUC(0-t) ([5]; plasma, oral, omeprazole 40 mg alone, AUC0-12, healthy human volunteers (n = 20), mean ± SD): 6090 ± 1480 ng·h/mL
AUC(0-inf) [5, 7]: 6650 ± 1650 ng·h/mL
Tmax [5, 7]: 1.95 ± 0.99 h
half-life [5, 7]: 2.3 ± 0.94 h
Cmax ([5]; plasma, oral, omeprazole 40 mg single dose administered alone, healthy human volunteers (n = 20), mean ± SD): 1140 ± 262 ng/mL
% recovery (mean) ([3]; High QC (1200 ng/ml), 15 °C for 12 hours (autosampler temperature)): 99.31%
% recovery (mean) ([3]; High QC (1200 ng/ml), -20 °C for 24 hours): 99.48%
% recovery (mean) ([3]; High QC (1200 ng/ml), -20°C for one month, three freezed cycles): 98.80%
% recovery (mean) ([3]; High QC (1200 ng/ml), RT for 24 hours): 98.35%
% recovery (mean) ([3]; Low QC (30 ng/ml), 15 °C for 12 hours (autosampler temperature)): 98.66%
% recovery (mean) ([3]; Low QC (30 ng/ml), -20 °C for 24 hours): 99.33%
% recovery (mean) ([3]; Low QC (30 ng/ml), -20°C for one month, three freezed cycles): 98.73%
% recovery (mean) ([3]; Low QC (30 ng/ml), RT for 24 hours): 96.11%
SMILES: COc1ccc2[nH]c([S+]([O-])Cc3ncc(C)c(OC)c3C)nc2c1 (stereo not shown) [Omeprazole]

SMILES: COc1ccc2nc(S(=O)(=O)Cc3ncc(C)c(OC)c3C)[nH]c2c1 [omeprazole sulfone]
pharmacological activity [1]: pharmacologically inactive
